Laboratory results from patent US7230011B2, “Benzenesulfonic acid indol-5-yl esters as antagonists of the 5ht6 receptor” (Eli Lilly and Company, priority 2002, dated 2007).
Where a name gives a salt, the structure may show the parent alone.

target: 5-HT6 receptor (Homo sapiens, UniProt P50406); conditions: in words; cited from earlier work
Sequence (P50406 whole entry): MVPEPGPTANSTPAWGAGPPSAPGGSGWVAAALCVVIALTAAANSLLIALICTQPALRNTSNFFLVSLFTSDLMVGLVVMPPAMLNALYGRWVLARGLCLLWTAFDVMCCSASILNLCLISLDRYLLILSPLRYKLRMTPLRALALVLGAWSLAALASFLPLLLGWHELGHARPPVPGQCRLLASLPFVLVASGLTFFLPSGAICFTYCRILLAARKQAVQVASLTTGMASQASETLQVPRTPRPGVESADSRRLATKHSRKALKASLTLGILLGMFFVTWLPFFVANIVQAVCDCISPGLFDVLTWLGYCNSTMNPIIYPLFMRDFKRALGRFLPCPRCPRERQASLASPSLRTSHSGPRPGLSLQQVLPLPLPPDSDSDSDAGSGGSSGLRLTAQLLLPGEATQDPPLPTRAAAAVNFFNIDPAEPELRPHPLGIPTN

| Structure (SMILES) | affinity for the 5-HT6 receptor |
| --- | --- |
| O=C(CCCN1CCC(O)(c2ccc(Cl)cc2)CC1)c1ccc(F)cc1 [haloperidol] | do not have significant affinity |
| Cc1nc2n(c(=O)c1CCN1CCC(c3noc4cc(F)ccc34)CC1)CCCC2 [risperidone] | do not have significant affinity |

system: not given; conditions: not given

| Structure (SMILES) | melting point |
| --- | --- |
| CN1CCC(c2c3n(c4ccc(OS(=O)(=O)c5c(F)cccc5F)cc24)CCC3)CC1.Cl | 149 °C |
| CN1CC=C(c2c[nH]c3ccc(OS(=O)(=O)c4c(F)cccc4F)cc23)CC1 | 183 °C (dec.) |
| CN1CC=C(c2c[nH]c3ccc(OS(=O)(=O)c4ccccc4)cc23)CC1 | 186 to 190 °C |
| CN1CCC(c2cn(CCc3ccccc3)c3ccc(OS(=O)(=O)c4c(F)cccc4F)cc23)CC1.Cl | 209 to 212 °C |
| CN1CCC(c2cn(Cc3ccc(F)cc3)c3ccc(OS(=O)(=O)c4c(F)cccc4F)cc23)CC1.Cl | 114 to 118 °C |
| CN1CCC(c2cn(Cc3ccccc3)c3ccc(OS(=O)(=O)c4c(F)cccc4F)cc23)CC1.Cl | 225 to 227 °C |
| CN1CCC(c2c[nH]c3ccc(OS(=O)(=O)c4ccc(NS(C)(=O)=O)cc4)cc23)CC1.Cl | 238 °C (dec.) |
| CN1CCC(c2c3n(c4ccc(OS(=O)(=O)c5ccccc5)cc24)CCC3)CC1.Cl | 202 to 204 °C |
| CCCn1cc(C2=CCN(C)CC2)c2cc(OS(=O)(=O)c3ccccc3)ccc21 (as salt: hydrochloride) | 170 to 174 °C |
| Cc1[nH]c2ccc(OS(=O)(=O)c3c(F)cccc3F)cc2c1C1CCN(C)CC1 (as salt: hydrochloride) [Example 31, 2,6-Difluorobenzenesulfonic acid 2-methyl-3-(1-methylpiperidin-4-yl)-1H-indol-5-yl ester] | 138 °C (dec.) |
| CN1CCC(c2c[nH]c3ccc(OS(=O)(=O)c4c(F)cccc4F)cc23)CC1 [47] | 235 to 238 °C |
| CN1CCC(c2c[nH]c3cc(F)c(OS(=O)(=O)c4c(F)cccc4F)cc23)CC1 [Example 32, 2,6-Difluorobenzenesulfonic acid 6-fluoro-3-(1-methylpiperidin-4-yl)-1H-indol-5-yl ester] | 202 °C |
| CN1CCC(c2c[nH]c3ccc(OS(=O)(=O)c4ccc(F)cc4F)cc23)CC1 [Example 35, 2,4-Difluorobenzenesulfonic acid 3-(1-methylpiperidin-4-yl)-1H-indol-5-yl ester] | 163 to 164 °C |
| CN1CCC(c2c[nH]c3ccc(OS(=O)(=O)c4ccc(I)cc4)cc23)CC1 [Example 36, 4-Iodobenzenesulfonic acid 3-(1-methylpiperidin-4-yl)-1H-indol-5-yl ester] | 174 to 176 °C |
| CN1CCC(c2c[nH]c3ccc(OS(=O)(=O)c4ccc(Cl)cc4)cc23)CC1 [Example 37, 4-Chlorobenzenesulfonic acid 3-(1-methylpiperidin-4-yl)-1H-indol-5-yl ester] | 182 to 183.5 °C |
| COc1ccc(S(=O)(=O)Oc2ccc3[nH]cc(C4CCN(C)CC4)c3c2)cc1 [Example 38, 4-Methoxybenzenesulfonic acid 3-(1-methylpiperidin-4-yl)-1H-indol-5-yl ester] | 186 to 187 °C |
| Cc1ccc(S(=O)(=O)Oc2ccc3[nH]cc(C4CCN(C)CC4)c3c2)cc1 [Example 39, 4-Methylphenylsulfonic acid 3-(1-methylpiperidin-4-yl)-1H-indol-5-yl ester] | 186 to 187 °C |
| CN1CCC(c2c[nH]c3ccc(OS(=O)(=O)c4ccccc4F)cc23)CC1 [Example 40, 2-Fluorobenzenesulfonic acid 3-(1-methylpiperidin-4-yl)-1H-indol-5-yl ester] | 180 to 182 °C |
| CN1CCC(c2c[nH]c3ccc(OS(=O)(=O)c4ccc(F)c(F)c4F)cc23)CC1 [Example 41, 2,3,4-Trifluorobenzenesulfonic acid 3-(1-methylpiperidin-4-yl)-1H-indol-5-yl ester] | 160 to 162 °C |
| CN1CCC(c2c[nH]c3ccc(OS(=O)(=O)c4c(F)cccc4F)cc23)CC1 [Example 42, 2,6-Difluorobenzenesulfonic acid 3-(1-methylpiperidin-4-yl)-1H-indol-5-yl ester] | 214 to 215 °C |
| CN1CCC(c2c[nH]c3ccc(OS(=O)(=O)c4ccc([N+](=O)[O-])cc4)cc23)CC1 [Example 43, 4-Nitrobenzenesulfonic acid 3-(1-methylpiperidin-4-yl)-1H-indol-5-yl ester] | 171 to 172 °C |
| CN1CCC(c2c[nH]c3ccc(OS(=O)(=O)c4ccc(F)cc4)cc23)CC1 [Example 51, 4-Fluorobenzenesulfonic acid 3-(1-methylpiperidin-4-yl)-1H-indol-5-yl ester] | 170 to 172 °C |
| Cc1cc(OS(=O)(=O)c2c(F)cccc2F)cc2c(C3CCN(C)CC3)cn(C)c12 [Example 56, 2,6-Difluorobenzenesulfonic acid 1,7-dimethyl-3-(1-methylpiperidin-4-yl)-1H-indol-5-yl ester] | 139 °C |
| Cc1cc(OS(=O)(=O)c2c(F)cccc2F)cc2c(C3CCN(C)CC3)cn(Cc3ccccc3)c12 [Example 59, 2,6-Difluorobenzenesulfonic acid 1-benzyl-7-methyl-3-(1-methylpiperidin-4-yl)-1H-indol-5-yl ester] | 158 °C |
| Cc1cc(OS(=O)(=O)c2ccccc2)cc2c(C3CCN(C)CC3)c[nH]c12 [Example 62, Benzenesulfonic Acid 7-methyl-3-(1-methylpiperidin-4-yl)-1H-indol-5-yl Ester] | 118 °C |
| Cc1cc(OS(=O)(=O)c2c(Cl)cccc2Cl)cc2c(C3CCN(C)CC3)c[nH]c12 [Example 63, 2,6-Dichlorobenzenesulfonic Acid 7-methyl-3-(1-methylpiperidin-4-yl)-1H-indol-5-yl Ester] | 179 °C |

Other lines, results leading:

| melting point | Structure (SMILES) |
| --- | --- |
| 188 to 191 °C | CN1CCC(c2cn(CCCc3ccccc3)c3ccc(OS(=O)(=O)c4ccccc4)cc23)CC1.O=C(O)C(=O)O |
| 139 to 142 °C | CCCS(=O)(=O)n1cc(C2CCN(C)CC2)c2cc(OS(=O)(=O)c3ccccc3)ccc21.O=C(O)C(=O)O |
| 134 to 138 °C | CC(C)S(=O)(=O)n1cc(C2CCN(C)CC2)c2cc(OS(=O)(=O)c3ccccc3)ccc21.O=C(O)C(=O)O |
| 121 to 126 °C | CCS(=O)(=O)n1cc(C2CCN(C)CC2)c2cc(OS(=O)(=O)c3ccccc3)ccc21.O=C(O)C(=O)O |
| 95 to 99 °C | CN1CCC(c2cn(S(C)(=O)=O)c3ccc(OS(=O)(=O)c4ccccc4)cc23)CC1.O=C(O)C(=O)O |
| 120 to 124 °C | CN1CCC(c2cn(S(=O)(=O)Cc3ccccc3)c3ccc(OS(=O)(=O)c4ccccc4)cc23)CC1.O=C(O)C(=O)O |
| 121 to 125 °C | CN1CCC(c2cn(S(=O)(=O)c3cccc4ccccc34)c3ccc(OS(=O)(=O)c4ccccc4)cc23)CC1.O=C(O)C(=O)O |
| 193 to 198 °C | CCCCn1cc(C2CCN(C)CC2)c2cc(OS(=O)(=O)c3ccccc3)ccc21.O=C(O)C(=O)O |
| 181 to 184 °C | CN1CCC(c2cn(Cc3ccc(F)cc3)c3ccc(OS(=O)(=O)c4ccccc4)cc23)CC1.O=C(O)C(=O)O |
| 141 to 144 °C | CN1CCC(c2cn(Cc3ccc(F)cc3F)c3ccc(OS(=O)(=O)c4ccccc4)cc23)CC1.O=C(O)C(=O)O |
| 227 to 230 °C | CN1CCC(c2cn(Cc3ccccc3)c3ccc(OS(=O)(=O)c4ccccc4)cc23)CC1.Cl |
| 222 to 224 °C | CN1CCC(c2cn(Cc3ccccc3F)c3ccc(OS(=O)(=O)c4ccccc4)cc23)CC1.Cl |
| 103 to 105 °C | CN1CCC(c2cn(Cc3cccc(F)c3)c3ccc(OS(=O)(=O)c4ccccc4)cc23)CC1.Cl |
| 188 to 191 °C | CC(C)Cn1cc(C2CCN(C)CC2)c2cc(OS(=O)(=O)c3ccccc3)ccc21.Cl |
| 158 to 161 °C | CN1CCC(c2cn(CCCCc3ccccc3)c3ccc(OS(=O)(=O)c4ccccc4)cc23)CC1.Cl |
| 103 to 107 °C | CC(C)n1cc(C2CCN(C)CC2)c2cc(OS(=O)(=O)c3ccccc3)ccc21.O=C(O)C(=O)O |
| 202 to 205 °C | CN1CCC(c2cn(C3CCCC3)c3ccc(OS(=O)(=O)c4ccccc4)cc23)CC1.O=C(O)C(=O)O |
| 169 to 172 °C | CCCCn1cc(C2CCN(C)CC2)c2cc(OS(=O)(=O)c3ccccc3)ccc21.Cl |
| 185 to 189 °C | CCCn1cc(C2CCN(C)CC2)c2cc(OS(=O)(=O)c3c(F)cccc3F)ccc21.O=C(O)C(=O)O |
| 169 to 172 °C | CN1CCC(c2cn(Cc3ccc(F)cc3)c3ccc(OS(=O)(=O)c4ccccc4)cc23)CC1.Cl |
| 127 to 130 °C | CCn1cc(C2CCN(C)CC2)c2cc(OS(=O)(=O)c3ccccc3)ccc21.O=C(O)C(=O)O |
| 194 to 197 °C | CCCn1cc(C2CCN(C)CC2)c2cc(OS(=O)(=O)c3ccccc3)ccc21.Cl |
| 195 to 198 °C (dec.) | CN1CCC(c2cn(C)c3ccc(OS(=O)(=O)c4c(F)cccc4F)cc23)CC1.O=C(O)C(=O)O |
| 135 to 142 °C | CN1CCC(c2cn(C)c3ccc(OS(=O)(=O)c4ccccc4)cc23)CC1.O=C(O)C(=O)O |
| 161 to 165 °C | CCn1cc(C2CCN(C)CC2)c2cc(OS(=O)(=O)c3c(F)cccc3F)ccc21.O=C(O)C(=O)O |
| 205 to 208 °C | CN1CCC(c2cn(Cc3ccccc3)c3ccc(OS(=O)(=O)c4c(F)cccc4F)cc23)CC1.O=C(O)C(=O)O |
| 208 to 212 °C | CN1CCC(c2cn(CCc3ccccc3)c3ccc(OS(=O)(=O)c4ccccc4)cc23)CC1.O=C(O)C(=O)O |
| 192 to 194 °C | CN1CCC(c2c[nH]c3ccc(OS(=O)(=O)c4ccccc4)cc23)CC1 [Example 34, Benzenesulfonic acid 3-(1-methylpiperidin-4-yl)-1H-indol-5-yl ester] |
| 189 to 194 °C | CN1CCC(c2c[nH]c3ccc(OS(=O)(=O)c4ccccc4)cc23)CC1 [Example 45, Benzenesulfonic acid 3-(1-methylpiperidin-4-yl)-1H-indol-5-yl ester] |
